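Following 48 hours of exposure in 96-well plates, responses at five concentrations were used to interpolate endpoints linearly. Definition used: TGI = concentration required for complete inhibition of growth.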
Columns and labels:
Test in all cases: DTP human tumour cell line panel, 48 h
SF-268 CNS = test system: SF-268 CNS
SF-295 CNS = test system: SF-295 CNS
SK-MEL-5 melanoma = test system: SK-MEL-5 melanoma
A549 NSCLC = test system: A549 NSCLC
T-47D breast = test system: T-47D breast
A498 renal = test system: A498 renal
K-562 leukemia = test system: K-562 leukemia
MALME-3M melanoma = test system: MALME-3M melanoma
U251 CNS = test system: U251 CNS
NCI/ADR-RES ovarian = test system: NCI/ADR-RES ovarian
TK-10 renal = test system: TK-10 renal
MDA-N = test system: MDA-N
NCI-H23 lung = test system: NCI-H23 lung
HCC-2998 colon = test system: HCC-2998 colon
HCT-116 colon = test system: HCT-116 colon
RXF 393 renal = test system: RXF 393 renal
ACHN renal = test system: ACHN renal
HOP-62 NSCLC = test system: HOP-62 NSCLC
786-0 renal = test system: 786-0 renal
OVCAR-3 ovarian = test system: OVCAR-3 ovarian
DU-145 prostate = test system: DU-145 prostate
HCT-15 colon = test system: HCT-15 colon
PC-3 prostate = test system: PC-3 prostate
SK-MEL-28 melanoma = test system: SK-MEL-28 melanoma
BT-549 breast = test system: BT-549 breast
M14 melanoma = test system: M14 melanoma
HT29 colon = test system: HT29 colon
SNB-19 CNS = test system: SNB-19 CNS
MCF7 breast = test system: MCF7 breast
EKVX NSCLC = test system: EKVX NSCLC
NCI-H460 lung = test system: NCI-H460 lung
NCI-H522 lung = test system: NCI-H522 lung
SF-539 CNS = test system: SF-539 CNS
SW-620 colon = test system: SW-620 colon
MDA-MB-435 = test system: MDA-MB-435
KM12 colon = test system: KM12 colon
SK-OV-3 ovarian = test system: SK-OV-3 ovarian
IGROV1 ovarian = test system: IGROV1 ovarian
UACC-257 melanoma = test system: UACC-257 melanoma
UACC-62 melanoma = test system: UACC-62 melanoma
COLO 205 colon = test system: COLO 205 colon
NCI-H226 lung = test system: NCI-H226 lung
SN12C renal = test system: SN12C renal
MOLT-4 leukemia = test system: MOLT-4 leukemia
CAKI-1 renal = test system: CAKI-1 renal
MDA-MB-231 breast = test system: MDA-MB-231 breast
OVCAR-8 ovarian = test system: OVCAR-8 ovarian
HOP-92 NSCLC = test system: HOP-92 NSCLC
SK-MEL-2 melanoma = test system: SK-MEL-2 melanoma
SR leukemia = test system: SR leukemia
OVCAR-5 ovarian = test system: OVCAR-5 ovarian
LOX IMVI melanoma = test system: LOX IMVI melanoma
UO-31 renal = test system: UO-31 renal
SNB-75 CNS = test system: SNB-75 CNS
HL-60(TB) leukemia = test system: HL-60(TB) leukemia
HS 578T breast = test system: HS 578T breast
OVCAR-4 ovarian = test system: OVCAR-4 ovarian
CCRF-CEM leukemia = test system: CCRF-CEM leukemia
RPMI-8226 leukemia = test system: RPMI-8226 leukemia

CCOP(=O)(OCC)/C(C#N)=C/c1cccn1CC(C)C
TGI (SF-268 CNS): > 100 µM | TGI (SF-295 CNS): > 100 µM | TGI (SK-MEL-5 melanoma): > 100 µM | TGI (A549 NSCLC): > 100 µM | TGI (T-47D breast): > 100 µM | TGI (A498 renal): > 100 µM | TGI (K-562 leukemia): > 100 µM | TGI (MALME-3M melanoma): > 100 µM | TGI (U251 CNS): > 100 µM | TGI (NCI/ADR-RES ovarian): > 100 µM | TGI (TK-10 renal): > 100 µM | TGI (MDA-N): > 100 µM | TGI (NCI-H23 lung): > 100 µM | TGI (HCC-2998 colon): > 100 µM | TGI (HCT-116 colon): > 100 µM | TGI (RXF 393 renal): > 100 µM | TGI (ACHN renal): > 100 µM | TGI (HOP-62 NSCLC): > 100 µM | TGI (786-0 renal): > 100 µM | TGI (OVCAR-3 ovarian): > 100 µM | TGI (DU-145 prostate): > 100 µM | TGI (HCT-15 colon): > 100 µM | TGI (PC-3 prostate): > 100 µM | TGI (SK-MEL-28 melanoma): > 100 µM | TGI (BT-549 breast): > 100 µM | TGI (M14 melanoma): > 100 µM | TGI (HT29 colon): > 100 µM | TGI (SNB-19 CNS): > 100 µM | TGI (MCF7 breast): > 100 µM | TGI (EKVX NSCLC): > 100 µM | TGI (NCI-H460 lung): > 100 µM | TGI (NCI-H522 lung): > 100 µM | TGI (SF-539 CNS): > 100 µM | TGI (SW-620 colon): > 100 µM | TGI (MDA-MB-435): > 100 µM | TGI (KM12 colon): > 100 µM | TGI (SK-OV-3 ovarian): > 100 µM | TGI (IGROV1 ovarian): > 100 µM | TGI (UACC-257 melanoma): > 100 µM | TGI (UACC-62 melanoma): > 100 µM | TGI (COLO 205 colon): > 100 µM | TGI (NCI-H226 lung): > 100 µM | TGI (SN12C renal): > 100 µM | TGI (MOLT-4 leukemia): > 100 µM | TGI (CAKI-1 renal): > 100 µM | TGI (MDA-MB-231 breast): > 100 µM | TGI (OVCAR-8 ovarian): > 100 µM | TGI (HOP-92 NSCLC): > 100 µM | TGI (SK-MEL-2 melanoma): > 100 µM | TGI (SR leukemia): > 100 µM | TGI (OVCAR-5 ovarian): > 100 µM | TGI (LOX IMVI melanoma): > 100 µM | TGI (UO-31 renal): > 100 µM | TGI (SNB-75 CNS): > 100 µM

Nc1ncnc2c1ncn2C1OC(CO)=CC1O (configuration not stated)
TGI (SF-268 CNS): > 37.5 µM | TGI (SF-295 CNS): > 37.5 µM | TGI (HL-60(TB) leukemia): > 37.5 µM | TGI (SK-MEL-5 melanoma): > 37.5 µM | TGI (A549 NSCLC): > 37.5 µM | TGI (T-47D breast): > 37.5 µM | TGI (A498 renal): > 37.5 µM | TGI (K-562 leukemia): > 37.5 µM | TGI (MALME-3M melanoma): > 37.5 µM | TGI (U251 CNS): > 37.5 µM | TGI (NCI/ADR-RES ovarian): > 37.5 µM | TGI (TK-10 renal): > 37.5 µM | TGI (MDA-N): > 37.5 µM | TGI (NCI-H23 lung): > 37.5 µM | TGI (HCC-2998 colon): > 37.5 µM | TGI (HCT-116 colon): > 37.5 µM | TGI (RXF 393 renal): > 37.5 µM | TGI (ACHN renal): > 37.5 µM | TGI (HOP-62 NSCLC): > 37.5 µM | TGI (HS 578T breast): > 37.5 µM | TGI (786-0 renal): > 37.5 µM | TGI (OVCAR-3 ovarian): > 37.5 µM | TGI (DU-145 prostate): > 37.5 µM | TGI (HCT-15 colon): > 37.5 µM | TGI (PC-3 prostate): > 37.5 µM | TGI (SK-MEL-28 melanoma): > 37.5 µM | TGI (M14 melanoma): > 37.5 µM | TGI (HT29 colon): > 37.5 µM | TGI (SNB-19 CNS): > 37.5 µM | TGI (MCF7 breast): > 37.5 µM | TGI (EKVX NSCLC): > 37.5 µM | TGI (NCI-H460 lung): > 37.5 µM | TGI (NCI-H522 lung): > 37.5 µM | TGI (SF-539 CNS): > 37.5 µM | TGI (SW-620 colon): > 37.5 µM | TGI (MDA-MB-435): > 37.5 µM | TGI (KM12 colon): > 37.5 µM | TGI (SK-OV-3 ovarian): > 37.5 µM | TGI (IGROV1 ovarian): > 37.5 µM | TGI (UACC-257 melanoma): > 37.5 µM | TGI (UACC-62 melanoma): > 37.5 µM | TGI (COLO 205 colon): > 37.5 µM | TGI (NCI-H226 lung): > 37.5 µM | TGI (SN12C renal): > 37.5 µM | TGI (OVCAR-4 ovarian): > 37.5 µM | TGI (MOLT-4 leukemia): > 37.5 µM | TGI (CAKI-1 renal): > 37.5 µM | TGI (MDA-MB-231 breast): > 37.5 µM | TGI (OVCAR-8 ovarian): > 37.5 µM | TGI (HOP-92 NSCLC): > 37.5 µM | TGI (SK-MEL-2 melanoma): > 37.5 µM | TGI (SR leukemia): > 37.5 µM | TGI (CCRF-CEM leukemia): > 37.5 µM | TGI (OVCAR-5 ovarian): > 37.5 µM | TGI (LOX IMVI melanoma): > 37.5 µM | TGI (UO-31 renal): > 37.5 µM | TGI (SNB-75 CNS): > 37.5 µM | TGI (RPMI-8226 leukemia): > 37.5 µM
